Assay: recombinant barcode read abundance after kanamycin selection (control-corrected) (log10(CPM+1)); higher = more efficient recombination; sequences stand for … in AGTGCAGAGAAAATCGGCCAGTTTTCTCTGCCTGCAGTCCGCATGCCGT…AGATTTATGCAGCGGACTGCCTTTCTCCCAAAGTGATAAACCGGACAGTATCATGGACCGGTTTTCCCGGTAATCCGTATTTGCAAGGTTGGTTTCACT; site = the 11-nt target
Method: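 Pooled E. coli target-specificity screen for the IS621 bridge recombinase. Each library plasmid pairs an 11-nt target (CT core) with a bridge RNA whose target-binding loop (9-nt LTG + 4-nt RTG) is reprogrammed; the rest of the 177-nt WT IS621 bridge RNA scaffold is fixed. The plasmid is co-electroporated with a WT donor plasmid; recombinase is induced with 0.1 mM IPTG and recombinants are selected on kanamycin. Recombinant barcodes are sequenced, converted to CPM, averaged over two biological replicates and corrected by the unselected control CPM. Molecule = full bridge RNA written as DNA: LTG = specificity nt 1-9, RTG = reverse complement of specificity nt 8-11, in the WT scaffold.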
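Further: IS621 recombinase and bridge RNA in Escherichia coli cells.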

Point of comparison: “CTATGGACTTGGGTTCTAACCTGTTGCAC (site CTATGGACTTT)”, “recombinant barcode read abundance (log10)” value 0.0443. Against it:
- TGTCAAACTTGGGTTCTAACCTGTTGCCT (site TGTCAACCTAG) — within 0.2 log units, 0.176
- TTGCCAACTTGGGTTCTAACCTGTTGCCT (site TTGCAAACTAG) — within 0.2 log units, 0.146
- GCCATTACTTGGGTTCTAACCTGTTGCCT (site GCCATGACTAG) — higher, 0.297
- GTACAGCCTTGGGTTCTAACCTGTTGCCT (site GTACTGCCTAG) — within 0.2 log units, 0.155
- TGTGTCCCTTGGGTTCTAACCTGTTGCCT (site TGAGTCCCTAG) — within 0.2 log units, 0.159
- CCTACATCTTGGGTTCTAACCTGTTGCTA (site CCTACATCTTA) — within 0.2 log units, 0.0332
- TGCCGAACTTGGGTTCTAACCTGTTGCCT (site TGCCGAACTAG) — within 0.2 log units, 0.161
- ACCCAGCCTTGGGTTCTAACCTGTTGCAT (site ACCCAGCCTAG) — higher, 0.68
- GATCCATCTTGGGTTCTAACCTGTTGCCT (site GTTCCATCTAG) — within 0.2 log units, 0.142
- GGAGAGGCTTGGGTTCTAACCTGTTGCCT (site GGAGACGCTAG) — within 0.2 log units, 0.143
- GGCGTCCCTTGGGTTCTAACCTGTTGCCT (site GGCATCCCTAG) — higher, 0.284
- CTCATGTCTTGGGTTCTAACCTGTTGCTT (site CTCATGTCTAA) — higher, 1.44
- TTACCGACTTGGGTTCTAACCTGTTGCCT (site TTACCTACTAG) — within 0.2 log units, 0.0567
- GGTGCTCCTTGGGTTCTAACCTGTTGCAT (site GGTGCTCCTGT) — within 0.2 log units, 0.0976
- AGGTCACCTTGGGTTCTAACCTGTTGCTT (site AGGTCACCTAT) — higher, 1.24
- GTGTACCCTTGGGTTCTAACCTGTTGCGA (site GTGTACCCTCC) — within 0.2 log units, 0.0447
- GAAAAGTCTTGGGTTCTAACCTGTTGCTG (site CTCGCTCCTTG) — within 0.2 log units, 0.185
- GGTTCATCTTGGGTTCTAACCTGTTGCCA (site GGTTCATCTTG) — within 0.2 log units, 0.0738
- AAGGAACCTTGGGTTCTAACCTGTTGCCT (site TAGGAACCTAG) — higher, 2.11
- GTCGCTACTTGGGTTCTAACCTGTTGCCG (site GTCTCTACTCG) — higher, 1.35
- CTAAAACCTTGGGTTCTAACCTGTTGCCT (site CTAAAACCTAG) — higher, 1
- GCCATTACTTGGGTTCTAACCTGTTGCCT (site GCCATAACTAG) — within 0.2 log units, 0.0468
- CTCTCGTCTTGGGTTCTAACCTGTTGCGT (site CTCTCGTCTAT) — within 0.2 log units, 0.0817
- GCCGAGTCTTGGGTTCTAACCTGTTGCTT (site GCCGAGTCTTA) — higher, 0.6
- CGTAAGTCTTGGGTTCTAACCTGTTGCCT (site CGTAAGTCTAG) — higher, 1.11
- GTTTGCTCTTGGGTTCTAACCTGTTGCCT (site GTTTGGTCTAG) — higher, 0.416
- CTCCGATCTTGGGTTCTAACCTGTTGCGG (site CTCCGATCTCC) — within 0.2 log units, 0.0434
- TAATCGACTTGGGTTCTAACCTGTTGCCT (site TAATCGCCTAG) — higher, 0.643
- TAAGTACCTTGGGTTCTAACCTGTTGCCT (site AAAGTACCTAG) — higher, 1.12
- TTAGACCCTTGGGTTCTAACCTGTTGCCT (site GTAGACCCTAG) — higher, 0.341
- GAAATGGCTTGGGTTCTAACCTGTTGCCT (site GAAAGGGCTAG) — within 0.2 log units, 0.108
- ATAGGTCCTTGGGTTCTAACCTGTTGCCT (site ATTGGTCCTAG) — higher, 0.309
- CTGGGTTCTTGGGTTCTAACCTGTTGCCT (site CTGGGTTCTAG) — within 0.2 log units, 0.17
- AAGGTCCCTTGGGTTCTAACCTGTTGCCA (site AAGGTTCCTTA) — within 0.2 log units, 0.0911
- GAGGACTCTTGGGTTCTAACCTGTTGCCA (site GAGGACTCTCG) — higher, 0.263
- TAGATGTCTTGGGTTCTAACCTGTTGCGG (site TAGAAGTCTCT) — within 0.2 log units, 0.0755
- TCCAATCCTTGGGTTCTAACCTGTTGCAG (site TCCAATCCTCT) — higher, 0.381
- TGGCCCTCTTGGGTTCTAACCTGTTGCTG (site TGGCCCTCTTA) — within 0.2 log units, 0.111
- GCCGAGTCTTGGGTTCTAACCTGTTGCTT (site GCCGAGTCTAA) — higher, 0.688
- CGGCGTACTTGGGTTCTAACCTGTTGCCT (site CGGCGTACTAG) — higher, 0.959
- CACTCCTCTTGGGTTCTAACCTGTTGCTT (site CACTCCTCTAA) — within 0.2 log units, 0.0523
- TCAAACCCTTGGGTTCTAACCTGTTGCGG (site TCGAACCCTCC) — within 0.2 log units, 0.0489
- CGTACGACTTGGGTTCTAACCTGTTGCAT (site CGTTCGACTAT) — within 0.2 log units, 0.0932
- GGACGGACTTGGGTTCTAACCTGTTGCCA (site GGACGGACTTG) — higher, 1.68
- GTAGACCCTTGGGTTCTAACCTGTTGCCT (site TTAGACCCTAG) — higher, 1.85
- CTAAAACCTTGGGTTCTAACCTGTTGCCT (site GTAAAACCTAG) — within 0.2 log units, 0.0969
- TAATGGCCTTGGGTTCTAACCTGTTGCGA (site ATGAACACTCA) — within 0.2 log units, 0.0388
- CTCACGACTTGGGTTCTAACCTGTTGCAG (site CTCACGACTCT) — higher, 0.273
- ATAACCTCTTGGGTTCTAACCTGTTGCCT (site ATAACCTCTAG) — higher, 2
- ACCCAGCCTTGGGTTCTAACCTGTTGCAG (site TGAGTCTCTTG) — within 0.2 log units, 0.0203
- ACTAGGACTTGGGTTCTAACCTGTTGCAG (site ACTAGAACTTT) — within 0.2 log units, 0.0381
- AACTCAACTTGGGTTCTAACCTGTTGCCT (site AACTAAACTAG) — within 0.2 log units, 0.108
- AGTCTAGCTTGGGTTCTAACCTGTTGCCT (site AGTCTAGCTTG) — within 0.2 log units, 0.0207
- GATAGTACTTGGGTTCTAACCTGTTGCCT (site GATAGTTCTAG) — within 0.2 log units, 0.17
- CTCTAGCCTTGGGTTCTAACCTGTTGCGT (site CTCTAGCCTAC) — higher, 1.25
- AGACGTACTTGGGTTCTAACCTGTTGCCT (site AGACGTACTAG) — higher, 1.65
- CACAGACCTTGGGTTCTAACCTGTTGCCT (site AACAGACCTAG) — within 0.2 log units, 0.00929
- CCGTCATCTTGGGTTCTAACCTGTTGCCT (site CCGTCATCTAG) — within 0.2 log units, 0.108
- ACTGATCCTTGGGTTCTAACCTGTTGCCT (site ACTGATACTAG) — within 0.2 log units, 0.00756
- CGTCGCACTTGGGTTCTAACCTGTTGCCT (site CCTCGCACTAG) — within 0.2 log units, 0.029
- ATCGGAGCTTGGGTTCTAACCTGTTGCCT (site ATCGGACCTAG) — within 0.2 log units, 0.0265
- CTTAGGACTTGGGTTCTAACCTGTTGCCC (site CTTAGGACTAG) — higher, 0.374
- ATGGCGCCTTGGGTTCTAACCTGTTGCCT (site ATGGCGCCTAG) — higher, 0.856
- ACCCAGCCTTGGGTTCTAACCTGTTGCTT (site ACCCAGCCTAC) — higher, 0.278
- GGGGAGTCTTGGGTTCTAACCTGTTGCTT (site GGGGAGCCTCA) — within 0.2 log units, 0.16
- GCGGTGACTTGGGTTCTAACCTGTTGCCT (site TCGGTGACTAG) — within 0.2 log units, 0.074
- CTATGGACTTGGGTTCTAACCTGTTGCCT (site CTATTGACTAG) — within 0.2 log units, 0.027
- ATTAAGTCTTGGGTTCTAACCTGTTGCCT (site AATAAGTCTAG) — within 0.2 log units, 0.0662
- GAGAATCCTTGGGTTCTAACCTGTTGCGT (site GAGAATCCTAC) — higher, 2.49
- TAGATGTCTTGGGTTCTAACCTGTTGCGG (site TAGATGTCTCC) — higher, 2.43
- CCTCCCTCTTGGGTTCTAACCTGTTGCTA (site CCTCCCTCTCA) — higher, 0.481
- CATAAGCCTTGGGTTCTAACCTGTTGCCT (site CATTAGCCTAG) — within 0.2 log units, 0.0852
- TACTATGCTTGGGTTCTAACCTGTTGCCT (site TACTATGCTAG) — higher, 1.19
- GCTTTACCTTGGGTTCTAACCTGTTGCCT (site GCTTTACCTAG) — higher, 0.456
- TCGGACACTTGGGTTCTAACCTGTTGCCA (site TCGGACACTTG) — higher, 1.89
- CTCCGAGCTTGGGTTCTAACCTGTTGCAC (site GGAACGACTAC) — within 0.2 log units, 0.0202
- TTCGTAGCTTGGGTTCTAACCTGTTGCCT (site TTCGTAGCTAC) — within 0.2 log units, 0.0736
- TAGACTCCTTGGGTTCTAACCTGTTGCCA (site TAGACTCCTTG) — within 0.2 log units, 0.182
- GCTGTATCTTGGGTTCTAACCTGTTGCCT (site TCTGTATCTAG) — within 0.2 log units, 0.0648
- AGCGGTCCTTGGGTTCTAACCTGTTGCCT (site AGCGGCCCTAG) — higher, 1.05
- CCTTGGTCTTGGGTTCTAACCTGTTGCCT (site CCTTGGTCTAG) — within 0.2 log units, 0.216
